Reference: patent US7115642B2, “Substituted diphenyl isoxazoles, pyrazoles and oxadiazoles useful for treating HCV infection” (priority 2003, dated 2006)
Read-outs that look alike come from different tables or passages of the source.

What was measured:
[1] = test system: HCV replicon (5-2 Luc replicon-comprising cells); assay: HCV replicon assay (luciferase); type: cell-based, Hepatitis C virus; details: read-out: Replicon IC50
How it was run: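 Readout: IC50 from a 50% drop in luciferase signal (Bright-Glo, luminometer), scored + (≤10 μM) or − (>10 μM). Compounds added at various concentrations to 5-2 Luc replicon cells (Huh7 background), pre-incubated 24 h, then incubated 24 h more before reading.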

[2] = test system: HCV nonstructural protein NS5A or NS3 in 9–13 replicon cells; assay: Quantitative Western blot assay; type: cell-based, Hepatitis C virus; details: read-out: Western IC50
Procedure: Alternatively, the inhibitory activity of the compounds can be confirmed using a quantitative Western immunoblot assay utilizing antibodies specific for HCV non-structural proteins, such as NS3, NS4A NS5A and NS5B. In one embodiment of this assay, replicon cells are treated with varying concentrations of test compound to determine the concentration of test compound that yields a 50% reduction in the amount of a non-structural protein produced as compared to a control sample (IC50). A single non-structural protein may be quantified or multiple non-structural proteins may be quantified. Antibodies suitable for carrying out such immunoblot assays are available commercially (e.g., from BIODESIGN International, Saco, Me.).
Certain exemplary compounds of the invention were also tested for their ability to inhibit HCV replication using a quantitative Western blot analysis with antibodies specific for the HCV nonstructural protein NS5A or NS3. Actively dividing 9–13 replicon cells were seeded into Swell plates at a density of 1×10^5 cells/well in a volume of 2 ml/well and incubated at 37° C. and 5% CO2 for 24 hours. Various concentrations of test compounds (in a volume of 10 ul) were added to the wells and the cells incubated for another 48 hours. Protein samples were prepared from the cultured cells, resolved on a SDS-PAGE gel and transferred to a nitrocellulose membrane. The membrane was blocked with 5% non-fat milk in PBS for 1 hour at room temperature. Primary antibody (anti NS5A antibody; BIODESIGN International, Saco, Me. or anti NS3 antibody, Rigel) incubation was performed for 1 hour at room temperature, after which the membrane was washed 3 times (for 15 min per time) with PBST (PBS plus 0.1% Tween 20). Horseradish peroxidase conjugated secondary antibody incubation was performed for 1 hour at room temperature and the membrane was washed 3 times (for 15 min per time) with PBST. The membrane was then soaked in substrate solution (Pierce) and exposed to a film or quantified using an imager. In this assay, the amount of test compound that yielded a 50% reduction in the amount of NS5A or NS3 protein translated as compared to a control sample (IC50) was determined.
In TABLE 1, a value of “+” indicates an IC50 of 10 μM or less in the specified assay; a value of “−” indicates an IC50 of greater than 10 μM in the specified assay.

[3] = Cytotoxicity assay (Cell Titer Glo); type: cell-based; details: human; 48 hr with compound, ATP-dependent Cell Titer Glo assay; read-out: IC50 in cytotoxicity assay (number of viable cells)
Procedure: Compounds 67, 167, 169, 13, 1, 145, 29, 119, 63, 31, 39, 103, 123, 121, 97, 129, 79, 111, 85, 89, 109, 127, 131, 95, 47, 57, 69, 165, 161, 163, 3, 137, 15, 141, 41, 53, 33, 113, 93, 105, 77, 91, 81, 83, 35, 27, 65, 7, 135, 51, 139, 51, 49, 143, 5, 149, 11, 37, 21, 45, 61, 75, 23, 125, 73, 43, 171 and 101 were tested in a cytotoxicity assay with liver cells including an HCV replicon (5-2 Luc cells, 9–13 cells or Huh-7 cells). In the assay, cells were seeded onto 96-well plates (approx. 7500 cells/well in a volume of 90 μl) and grown for 24 hr at 37° C. On day 2, various concentrations of test compound (in a volume of 10 μl) were added to the wells and the cells were grown for an additional 48 hr at 37° C. On day 4, an ATP-dependent R-Luciferase assay (Cell Titer Glo assay) was performed to determine the number of viable cells.

[4] = Hepatitis C virus, 5-2 Luc replicon cells, luciferase readout
[5] = Hepatitis C virus, 9–13 replicon cells, NS5A or NS3 Western blot
[6] = 5-2 Luc replicon cells, luciferase readout
[7] = 9–13 replicon cells, NS5A or NS3 Western blot

Structure (SMILES) | IC50 [1, 4] [µM] | IC50 [2, 5] [µM] | IC50 at 48 h [3] [µM] | IC50 [1, 6] [µM] | IC50 [2, 7] [µM] | other results
O=C(Nc1cc(-c2cc(-c3c(Cl)cccc3Cl)no2)ccc1F)C(Cl)Cl [Compound 1, 2,2-Dichloro-N-[3-[3-(2,6-dichlorophenyl)-5-isoxazolyl]-6-fluorophenyl]Acetamide] | < 10 | < 10 | > 10 | – | – | –
O=C(Nc1cccc(-c2cc(-c3cccc(Cl)c3Cl)no2)c1)C(Cl)Cl [Compound 3, 2,2-Dichloro-N-[3-[3-(2,3-dichlorophenyl)-5-isoxazolyl]phenyl]Acetamide] | > 10 | < 10 | > 10 | – | – | –
O=C(Nc1cccc(-c2cc(-c3c(Cl)cccc3Cl)on2)c1)C(Cl)Cl [Compound 5, 2,2-Dichloro-N-[3-[5-(2,6-dichlorophenyl)-3-isoxazolyl]phenyl]Acetamide] | < 10 | < 10 | > 10 | – | – | –
O=C(Nc1cccc(-c2cc(-c3c(Cl)cccc3Cl)no2)c1)C(Cl)Cl [Compound 9, 2,2-Dichloro-N-[3-[3-(2,6-dichlorophenyl)-5-isoxazolyl]phenyl]Acetamide] | – | – | – | – | – | IC50 ([1]; Hepatitis C virus): < 10 µM; IC50 ([2]; Hepatitis C virus): < 10 µM; melting point: 167 °C
O=C(Nc1ccc(F)c(-c2cc(-c3c(Cl)cccc3Cl)no2)c1)C(Cl)Cl [Compound 13, 2,2-Dichloro-N-[3-[3-(2,6-dichlorophenyl)-5-isoxazolyl]4-fluorophenyl]Acetamide] | < 10 | < 10 | > 10 | – | – | –
Cc1ccc(F)c(-c2cc(-c3cccc(NC(=O)C(Cl)Cl)c3)on2)c1Cl [Compound 15, 2,2-Dichloro-N-[3-[3-(2-chloro-6-fluoro-3-methylphenyl)-5-isoxazolyl]phenyl]Acetamide] | < 10 | < 10 | > 10 | – | – | –
O=C(Nc1cccc(-c2cc(-c3c(F)cccc3Cl)no2)c1)C(Cl)Cl [Compound 27, 2,2-Dichloro-N-[3-[3-(2-chloro-6-fluorophenyl)-5-isoxazolyl]phenyl]Acetamide] | < 10 | < 10 | > 5 | – | – | –
O=C(CI)Nc1cccc(-c2cc(-c3c(Cl)cccc3Cl)no2)c1 [Compound 101, 2-Iodo-N-[3-[3-(2,6-dichlorophenyl)-5-isoxazolyl]phenyl]Acetamide] | < 10 | > 10 | > 10 | – | – | –
COC(=O)c1ccc(Cl)c(-c2cc(-c3cccc(NC(=O)C(Cl)Cl)c3)on2)c1Cl [Compound 135, 2,2-Dichloro-N-[3-[3-(3-carbomethoxy-2,6-dichlorophenyl)-5-isoxazolyl]phenyl]Acetamide] | > 10 | > 10 | > 10 | – | – | –
Cc1cccc(-c2cc(-c3cccc(NC(=O)C(Cl)Cl)c3)on2)c1C [Compound 163, 2,2-Dichloro-N-[3-[3-(2,3-dimethylphenyl)-5-isoxazolyl]phenyl]Acetamide] | > 10 | > 10 | > 10 | – | – | –
COC(=O)c1cccc(F)c1-c1cc(-c2cccc(NC(=O)C(Cl)Cl)c2)on1 [Compound 705] | – | – | – | < 10 | < 10 | –
CC(C)Oc1cccc(Cl)c1-c1cc(-c2cccc(NC(=O)C(Cl)Cl)c2)on1 [Compound 706] | – | – | – | < 10 | < 10 | –
Cc1oc(=O)oc1COC(=O)c1cccc(Cl)c1-c1cc(-c2cccc(NC(=O)C(Cl)Cl)c2)on1 [Compound 707] | – | – | – | < 10 | < 10 | –
CCOc1cccc(Cl)c1-c1cc(-c2cccc(NC(=O)C(Cl)Cl)c2)on1 [Compound 708] | – | – | – | < 10 | < 10 | –
O=C(Nc1cccc(-c2cc(-c3c(Cl)cccc3OCC3CC3)no2)c1)C(Cl)Cl [Compound 709] | – | – | – | < 10 | < 10 | –
O=C(Nc1cccc(-c2cc(-c3c(Cl)cccc3OC(F)F)no2)c1)C(Cl)Cl [Compound 710] | – | – | – | < 10 | < 10 | –
